# Test results: US6471976B1, “Copper complex bactericide/fungicide and method of making same” (priority 1990, dated 2002)
# Tested on: Colletotrichum lagenarium
# Experiment: Efficacy against Colletotrichum lagenarium on cucumber plants
# Details: in vivo
structure (smiles),measurement,value
[Cu] [copper],estimated LD90 rate for the control of Colletotrichum lagenarium on cucumber plants,200 ppm
